Values quoted from earlier work as cited in patent US8927021B2, “Granulating process and thus prepared granulate” (Egis Gyogyszergyar Nyilvanosan Muekoedoe Reszventarsasag, priority 2009, dated 2015).

solubility in digestive juice (digestive juice): insoluble
solubility in organic solvents (organic solvents): soluble
solubility in water (water): insoluble
Structure (SMILES): O=C1[C@H](CC[C@H](O)c2ccc(F)cc2)[C@@H](c2ccc(O)cc2)N1c1ccc(F)cc1 [Ezetimibe, (3R,4S)-1-(4-Fluorophenyl)-3-[(3S)-3-(4-fluorophenyl)-3-hydroxypropyl]-4-(4-hydroxyphenyl)-2-azetidinone]
